Assay results reported in publication PMC9898036, “VIP152 is a selective CDK9 inhibitor with pre-clinical in vitro and in vivo efficacy in chronic lymphocytic leukemia” (Leukemia, 2022).

Key:
EGFR(G719C) = EGFR(G719C) (Homo sapiens, UniProt P00533, G719C); experiment: KINOMEscan: EGFR(G719C); assay type: binding; details: 1000 nM, read-out: Percent Control
EGFR(L747-T751del,Sins) = experiment: KINOMEscan: EGFR(L747-T751del,Sins); assay type: binding, human; details: 1000 nM
WNK1 = WNK1 (Homo sapiens, UniProt Q9H4A3); experiment: KINOMEscan: WNK1; assay type: binding; details: 100 nM, read-out: Percent Control
TBK1 = TBK1 (Homo sapiens, UniProt Q9UHD2); experiment: KINOMEscan: TBK1; assay type: binding; details: 100 nM, read-out: Percent Control
ALK(L1196M) = ALK(L1196M) (Homo sapiens, UniProt Q9UM73, L1196M); experiment: KINOMEscan: ALK(L1196M); assay type: binding; details: 1000 nM, read-out: Percent Control
STK33 = STK33 (Homo sapiens, UniProt Q9BYT3); experiment: KINOMEscan: STK33; assay type: binding; details: 100 nM, read-out: Percent Control
MARK4 = MARK4 (Homo sapiens, UniProt Q96L34); experiment: KINOMEscan: MARK4; assay type: binding; details: 1000 nM, read-out: Percent Control
LIMK1 = LIMK1 (Homo sapiens, UniProt P53667); experiment: KINOMEscan: LIMK1; assay type: binding; details: 1000 nM, read-out: Percent Control
BRSK1 = BRSK1 (Homo sapiens, UniProt Q8TDC3); experiment: KINOMEscan: BRSK1; assay type: binding; details: 1000 nM, read-out: Percent Control
Calcium Channel N-Type = Calcium Channel N-Type (Rattus norvegicus, UniProt Q02294); experiment: Eurofins Diversity Panel; assay type: binding; details: Conc. 10 μM
PIKFYVE = PIKFYVE (Homo sapiens, UniProt Q9Y2I7); experiment: KINOMEscan: PIKFYVE; assay type: binding
Description: The structure and synthesis of VIP152 were recently described by Lücking et al.. (Fig. 1A); however, the selectivity of the molecule in cellular systems has yet to be explored. […] We also performed this experiment at 1000 nM, where CDK9 was inhibited at 99%. […] We found a strong concordance between our data and those of Lücking when comparing the most inhibited kinases. Potential off-target effects of VIP152 were next tested in vitro at a concentration of 10 µM for off-target activity against a broad range of receptors, transporters, ion channels, and enzymes (n = 138) using the Eurofins Diversity Panel.
Kinomescan Kinase Profiling Assay
Kinomescan Assay was performed at DiscoverRX and described in Fabian, et al. 2005, Nat.
Biotechnol. In brief, kinases were produced and subsequently tagged with DNA for qPCR detection.
Streptavidin-coated magnetic beads were bound to biotinylated kinase ligands to serve as a solid support.
VIP152 was dissolved in DMSO and tested across a 10 serial threefold dilution set and compared to a test compound and a DMSO control. Kinases which were inhibited by VIP152 would not be bound to the solid-support resulting in decreased substrate for the qPCR reaction. Kinome map was produced via TreeSpot Analysis from DiscoverRX. […]
NanoBRETTM Target Engagement Assay Protocol […]
The cell and lipid:DNA […]
complex was dispensed into a sterile tissue culture dish and incubated for 22-24 hours. Test compounds were then delivered from the compound source plate to the wells of a 384-well white NBS plate by Echo 550. Cells with NanoBRET Tracer Reagent were then prepared by first removing media from dish of transfected HEK293 cells via aspiration, trypsinization, and allowing cells to dissociate from the dish. Trypsin was neutralized using medium containing serum and centrifuged at 200g for 5 minutes to pellet the cells. Cell density was then adjusted to 2E05 cells/mL in Opti-MEM without phenol red. Complete 20X NanoBRET Tracer Reagent was prepared with Tracer Dilution Buffer and dispensed at a ratio of 1:20 Reagent to cells in the tube. The cell

[1] = target: RPS6KA4(Kin.Dom.2-C-terminal) (Homo sapiens, UniProt O75676); experiment: KINOMEscan: RPS6KA4(Kin.Dom.2-C-terminal); assay type: binding; details: 100 nM, read-out: Percent Control
FLT3 = FLT3 (Homo sapiens, UniProt P36888); experiment: KINOMEscan: FLT3; assay type: binding; details: 1000 nM, read-out: Percent Control
Dopamine D4.2 = Dopamine D4.2 (Homo sapiens, UniProt P21917, DEL265-296); experiment: Eurofins Diversity Panel; assay type: binding; details: hum, Conc. 10 μM
CDC2L5 = CDC2L5 (Homo sapiens, UniProt Q14004); experiment: KINOMEscan: CDC2L5; assay type: binding; details: 1000 nM, read-out: Percent Control
ITK = ITK (Homo sapiens, UniProt Q08881); experiment: KINOMEscan: ITK; assay type: binding; details: 1000 nM, read-out: Percent Control
RET = RET (Homo sapiens, UniProt P07949); experiment: KINOMEscan: RET; assay type: binding; details: 100 nM, read-out: Percent Control
IKK-alpha = IKK-alpha (Homo sapiens, UniProt O15111); experiment: KINOMEscan: IKK-alpha; assay type: binding; details: 1000 nM, read-out: Percent Control
MAST1 = MAST1 (Homo sapiens, UniProt Q9Y2H9); experiment: KINOMEscan: MAST1; assay type: binding; details: 1000 nM, read-out: Percent Control
[2] = target: CDK9 in complex with Cyclin T2 (Homo sapiens, UniProt P50750); experiment: HotSpot radiometric kinase assay; assay type: biochemical; design: purchased ReactionBio; details: 10-dose series from 0.5 nM to 10 µM; vs dinaciclib, KB-0742, atuveciclib
Description: (§1) We next compared VIP152 to other CDK inhibitors currently in development. […] The compounds were tested in a 10-dose series from 0.5 nM to 10 µM against CDK9 in complex with Cyclin T1/T2/K, CDK7/Cyclin H, and GSK3α/β. […]
(§2) HotSpot Kinase Assay Protocol
(§3) Compounds tested via HotSpot Kinase Assay were sent to ReactionBio for the experiment. The […]
(§4) Kinase substrate was added to reaction buffer (20 mM Hepes (pH 7.5), 10 mM MgCl2, 1 mM EGTA, 0.01% Brij35, 0.02 mg/ml BSA, 0.1 mM Na3VO4, 2 mM DTT, 1% DMSO). Cofactors and kinases were gently added to the reaction buffer. Compounds to be tested were dissolved in 100% DMSO and were delivered into the kinase reaction mixture by Acoustic technology (Echo550; nanoliter range) and incubated for 20 min at room temperature. 32P-ATP was delivered into the reaction mixture and the reaction was allowed to proceed for 2 hours. Kinase activity was detected by P81 filter-binding method.

[3] = target: CDK9 in complex with Cyclin T1 (Homo sapiens, UniProt P50750); experiment: HotSpot radiometric kinase assay; assay type: biochemical; design: purchased ReactionBio
Description: as §1, §2, §3, §4

GSK3β = GSK3β (Homo sapiens, UniProt P49841); experiment: HotSpot radiometric kinase assay; assay type: biochemical; design: purchased ReactionBio; details: 10-dose series from 0.5 nM to 10 µM; vs dinaciclib, KB-0742, atuveciclib
Description: as §1, §2, §3, §4

Chain of PIKFYVE (Q9Y2I7 whole entry): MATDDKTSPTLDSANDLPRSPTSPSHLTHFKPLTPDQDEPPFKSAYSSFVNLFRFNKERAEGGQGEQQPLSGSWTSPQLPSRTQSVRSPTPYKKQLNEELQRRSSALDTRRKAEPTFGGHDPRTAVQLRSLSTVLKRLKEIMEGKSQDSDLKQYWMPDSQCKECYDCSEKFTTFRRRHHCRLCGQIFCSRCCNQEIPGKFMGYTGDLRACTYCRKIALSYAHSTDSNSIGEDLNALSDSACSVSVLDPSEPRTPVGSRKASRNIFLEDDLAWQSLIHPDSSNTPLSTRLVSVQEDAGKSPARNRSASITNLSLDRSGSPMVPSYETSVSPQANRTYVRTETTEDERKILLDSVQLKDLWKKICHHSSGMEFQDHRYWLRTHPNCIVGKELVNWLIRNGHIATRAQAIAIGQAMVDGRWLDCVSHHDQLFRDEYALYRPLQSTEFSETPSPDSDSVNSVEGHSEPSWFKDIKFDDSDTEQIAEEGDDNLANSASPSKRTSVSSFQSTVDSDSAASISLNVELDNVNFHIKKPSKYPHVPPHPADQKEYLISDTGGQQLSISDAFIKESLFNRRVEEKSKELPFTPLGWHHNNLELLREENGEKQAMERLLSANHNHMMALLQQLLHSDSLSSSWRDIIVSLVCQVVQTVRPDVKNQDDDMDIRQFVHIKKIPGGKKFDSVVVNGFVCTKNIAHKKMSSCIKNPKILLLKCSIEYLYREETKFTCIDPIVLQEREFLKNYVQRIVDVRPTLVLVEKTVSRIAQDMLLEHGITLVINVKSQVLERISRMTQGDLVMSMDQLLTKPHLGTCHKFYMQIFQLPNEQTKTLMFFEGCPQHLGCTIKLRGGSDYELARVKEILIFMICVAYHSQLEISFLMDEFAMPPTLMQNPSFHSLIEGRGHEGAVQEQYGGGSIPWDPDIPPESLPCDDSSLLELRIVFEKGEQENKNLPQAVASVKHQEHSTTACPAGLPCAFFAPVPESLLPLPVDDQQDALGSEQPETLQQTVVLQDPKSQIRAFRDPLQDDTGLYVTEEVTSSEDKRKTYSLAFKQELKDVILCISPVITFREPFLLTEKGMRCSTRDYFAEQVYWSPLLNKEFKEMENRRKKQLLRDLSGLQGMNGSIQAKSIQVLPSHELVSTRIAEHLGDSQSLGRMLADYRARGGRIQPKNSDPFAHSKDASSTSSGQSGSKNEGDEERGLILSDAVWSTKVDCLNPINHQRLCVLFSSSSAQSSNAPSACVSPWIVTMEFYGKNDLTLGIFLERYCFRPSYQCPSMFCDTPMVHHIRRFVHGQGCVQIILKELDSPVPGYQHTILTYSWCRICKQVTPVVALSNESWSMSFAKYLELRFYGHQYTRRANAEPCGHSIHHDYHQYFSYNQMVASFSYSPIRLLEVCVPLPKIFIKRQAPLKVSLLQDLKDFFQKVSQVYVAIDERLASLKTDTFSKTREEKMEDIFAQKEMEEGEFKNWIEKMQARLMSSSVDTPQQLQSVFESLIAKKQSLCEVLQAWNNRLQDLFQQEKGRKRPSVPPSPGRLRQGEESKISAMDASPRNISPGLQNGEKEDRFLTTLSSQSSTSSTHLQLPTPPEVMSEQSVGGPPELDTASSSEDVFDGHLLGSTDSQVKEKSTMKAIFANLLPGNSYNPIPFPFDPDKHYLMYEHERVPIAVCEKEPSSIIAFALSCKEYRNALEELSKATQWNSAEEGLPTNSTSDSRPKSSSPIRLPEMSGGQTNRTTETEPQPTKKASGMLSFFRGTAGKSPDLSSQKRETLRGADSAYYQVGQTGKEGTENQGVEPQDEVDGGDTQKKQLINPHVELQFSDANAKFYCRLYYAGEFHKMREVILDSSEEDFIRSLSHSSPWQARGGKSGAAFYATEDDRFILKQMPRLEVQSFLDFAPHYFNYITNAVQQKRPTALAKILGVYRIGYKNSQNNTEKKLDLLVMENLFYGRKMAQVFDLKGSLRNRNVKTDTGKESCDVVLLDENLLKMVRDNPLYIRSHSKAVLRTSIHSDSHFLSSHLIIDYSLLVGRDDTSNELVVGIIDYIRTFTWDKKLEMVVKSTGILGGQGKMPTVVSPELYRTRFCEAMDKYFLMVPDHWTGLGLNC
Chain of CDK9 in complex with Cyclin T1 (P50750 whole entry): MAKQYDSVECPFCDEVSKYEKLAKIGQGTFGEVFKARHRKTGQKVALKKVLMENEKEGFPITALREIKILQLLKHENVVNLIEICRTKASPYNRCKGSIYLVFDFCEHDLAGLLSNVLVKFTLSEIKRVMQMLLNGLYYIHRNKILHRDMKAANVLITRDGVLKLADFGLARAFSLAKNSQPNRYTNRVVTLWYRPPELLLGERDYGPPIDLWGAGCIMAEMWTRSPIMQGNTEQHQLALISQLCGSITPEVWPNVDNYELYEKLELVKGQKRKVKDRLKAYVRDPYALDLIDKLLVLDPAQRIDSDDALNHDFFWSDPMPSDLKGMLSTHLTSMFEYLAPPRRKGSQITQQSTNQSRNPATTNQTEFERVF
Chain of CDK9 in complex with Cyclin T1 (O60563 whole entry partner): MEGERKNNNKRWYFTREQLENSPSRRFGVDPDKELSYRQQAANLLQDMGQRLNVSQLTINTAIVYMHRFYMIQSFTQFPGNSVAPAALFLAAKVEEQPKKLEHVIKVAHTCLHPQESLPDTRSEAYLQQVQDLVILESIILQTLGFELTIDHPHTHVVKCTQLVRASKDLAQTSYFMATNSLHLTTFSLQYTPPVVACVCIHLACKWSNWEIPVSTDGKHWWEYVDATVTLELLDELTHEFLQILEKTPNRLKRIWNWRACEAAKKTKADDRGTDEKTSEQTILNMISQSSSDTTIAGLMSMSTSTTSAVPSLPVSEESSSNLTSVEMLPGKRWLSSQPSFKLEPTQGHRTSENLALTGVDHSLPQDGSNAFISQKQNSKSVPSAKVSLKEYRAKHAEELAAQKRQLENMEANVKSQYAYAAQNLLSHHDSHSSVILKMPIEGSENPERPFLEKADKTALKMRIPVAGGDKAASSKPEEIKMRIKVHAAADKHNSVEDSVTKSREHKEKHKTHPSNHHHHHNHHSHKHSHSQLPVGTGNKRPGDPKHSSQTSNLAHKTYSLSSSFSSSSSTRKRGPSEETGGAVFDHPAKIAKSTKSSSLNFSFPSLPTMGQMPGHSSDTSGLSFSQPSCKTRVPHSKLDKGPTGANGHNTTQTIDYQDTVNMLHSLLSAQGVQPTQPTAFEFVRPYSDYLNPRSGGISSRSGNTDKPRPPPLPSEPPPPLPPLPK
Chain of TBK1 (Q9UHD2 whole entry): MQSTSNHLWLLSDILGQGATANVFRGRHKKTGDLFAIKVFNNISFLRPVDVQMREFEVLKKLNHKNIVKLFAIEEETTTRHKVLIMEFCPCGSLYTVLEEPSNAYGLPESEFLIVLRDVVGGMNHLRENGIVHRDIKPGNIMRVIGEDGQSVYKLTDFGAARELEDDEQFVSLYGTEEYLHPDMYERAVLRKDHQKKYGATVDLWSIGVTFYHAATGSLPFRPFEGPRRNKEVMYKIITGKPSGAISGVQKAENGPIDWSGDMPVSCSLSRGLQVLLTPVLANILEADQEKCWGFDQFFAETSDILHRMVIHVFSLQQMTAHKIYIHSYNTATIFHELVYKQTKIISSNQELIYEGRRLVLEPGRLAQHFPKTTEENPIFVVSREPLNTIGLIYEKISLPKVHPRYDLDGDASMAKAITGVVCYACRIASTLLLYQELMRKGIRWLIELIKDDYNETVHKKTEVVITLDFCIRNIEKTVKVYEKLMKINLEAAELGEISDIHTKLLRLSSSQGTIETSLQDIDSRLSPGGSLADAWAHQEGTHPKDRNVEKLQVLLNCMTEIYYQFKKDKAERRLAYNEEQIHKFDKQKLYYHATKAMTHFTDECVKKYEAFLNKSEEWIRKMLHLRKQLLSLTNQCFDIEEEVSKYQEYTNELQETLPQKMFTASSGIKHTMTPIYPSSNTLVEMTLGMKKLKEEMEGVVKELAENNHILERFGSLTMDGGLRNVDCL
Chain of IKK-alpha (O15111 whole entry): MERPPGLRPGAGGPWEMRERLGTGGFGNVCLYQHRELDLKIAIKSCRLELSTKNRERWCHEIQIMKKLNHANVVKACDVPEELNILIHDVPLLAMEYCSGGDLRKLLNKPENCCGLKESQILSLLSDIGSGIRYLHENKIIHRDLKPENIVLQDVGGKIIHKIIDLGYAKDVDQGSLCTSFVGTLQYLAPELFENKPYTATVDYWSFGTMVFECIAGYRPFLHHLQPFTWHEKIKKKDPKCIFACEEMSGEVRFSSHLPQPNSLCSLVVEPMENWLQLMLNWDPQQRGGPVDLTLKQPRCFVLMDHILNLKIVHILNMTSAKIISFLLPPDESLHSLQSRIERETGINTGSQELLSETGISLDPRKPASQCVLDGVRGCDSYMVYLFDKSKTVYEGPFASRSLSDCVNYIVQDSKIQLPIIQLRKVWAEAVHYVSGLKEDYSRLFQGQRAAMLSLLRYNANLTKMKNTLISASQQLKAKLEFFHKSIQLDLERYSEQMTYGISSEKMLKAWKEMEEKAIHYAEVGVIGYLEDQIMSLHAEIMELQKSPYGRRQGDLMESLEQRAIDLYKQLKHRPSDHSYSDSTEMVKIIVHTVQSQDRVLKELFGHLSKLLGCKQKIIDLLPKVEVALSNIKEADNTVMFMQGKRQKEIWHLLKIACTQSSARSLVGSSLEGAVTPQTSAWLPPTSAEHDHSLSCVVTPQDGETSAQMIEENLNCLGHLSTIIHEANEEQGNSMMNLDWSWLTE
Chain of RPS6KA4(Kin.Dom.2-C-terminal) (O75676 372-772 limits assumed): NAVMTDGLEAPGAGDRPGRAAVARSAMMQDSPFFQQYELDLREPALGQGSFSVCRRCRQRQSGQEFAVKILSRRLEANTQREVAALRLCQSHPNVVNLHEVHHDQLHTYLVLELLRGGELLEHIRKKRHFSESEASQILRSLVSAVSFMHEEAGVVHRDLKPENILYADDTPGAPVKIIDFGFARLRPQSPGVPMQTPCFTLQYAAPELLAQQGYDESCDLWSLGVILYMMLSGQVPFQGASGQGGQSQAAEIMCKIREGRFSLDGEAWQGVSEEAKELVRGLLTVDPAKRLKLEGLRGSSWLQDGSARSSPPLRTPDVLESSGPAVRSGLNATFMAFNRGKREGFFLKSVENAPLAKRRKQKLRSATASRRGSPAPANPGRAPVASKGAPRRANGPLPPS

Q: Which results are given for `COc1cc(F)ccc1-c1cc(Nc2cc(CS(C)(=N)=O)ccn2)ncc1F` (stereo not shown) [VIP152]?
A: remaining binding at 1 µM (EGFR(G719C)): 97%; Percent Control (EGFR(L747-T751del,Sins)): 97%; remaining binding at 0.1 µM (WNK1): 100%; remaining binding at 0.1 µM (TBK1): 62%; remaining binding at 1 µM (ALK(L1196M)): 91%; remaining binding at 0.1 µM (STK33): 88%; remaining binding at 1 µM (MARK4): 88%; remaining binding at 1 µM (LIMK1): 92%; remaining binding at 1 µM (BRSK1): 83%; inhibition at 10 µM (Calcium Channel N-Type): 4%; inhibition at 0.1 µM (PIKFYVE; 100 nM, read-out: inhibition of PIKFYVE relative to control): 74%; remaining binding at 0.1 µM (PIKFYVE; PIKFYVE, 100 nM, read-out: Percent Control): 26%; remaining binding at 1 µM (PIKFYVE; kinase PIKFYVE (Entrez PIKFYVE), compound concentration 1000 nM, read-out: Percent Control): 55%; remaining binding at 0.1 µM [1]: 100%; remaining binding at 1 µM (FLT3): 38%; inhibition at 10 µM (Dopamine D4.2): 32%; remaining binding at 1 µM (CDC2L5): 13%; remaining binding at 1 µM (ITK): 100%; remaining binding at 0.1 µM (RET): 100%; remaining binding at 1 µM (IKK-alpha): 93%; remaining binding at 1 µM (MAST1): 81%; potency versus the other inhibitors tested [2]: higher potency; potency versus the other inhibitors tested ([3]; 10-dose series from 0.5 nM to 10 µM, vs dinaciclib, KB-0742, atuveciclib): higher potency; increase in potency compared with other inhibitors currently in development ([3]; CDK9): > 10 fold; potency versus the other inhibitors tested (GSK3β): higher potency
